Assay results: PubChem BioAssay AID330 (DTP/NCI, 2004)
Values joined by “and” are separate entries in the source; they are usually repeats but may differ in a detail not shown here. Equal entries are not always repeated. Inconclusive results and toxic doses are left out.

System: P388 leukemia ip, CD2F1 mice, survival T/C
Assay: NCI In Vivo Anticancer Drug Screen. Data for tumor model P388 Leukemia (intraperitoneal) in CD2F1 (CDF1) mice
Conditions: endpoint: median survival time, higher = longer survival
How it was run: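 Mice carrying the transplanted tumor received test compound or vehicle. Survival was recorded in each group, and the value is the treated-group measurement divided by that of the vehicle-treated control group.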

[1] = dose: 12.5 mg/kg/injection, schedule: Q01DX009 (ip), vehicle: saline with Tween-80
[2] = dose: 25.0 mg/kg/injection, schedule: Q01DX009 (ip), vehicle: saline with Tween-80
[3] = dose: 50.0 mg/kg/injection, schedule: Q01DX009 (ip), vehicle: saline with Tween-80
[4] = dose: 100.0 mg/kg/injection, schedule: Q01DX009 (ip), vehicle: saline with Tween-80
[5] = dose: 200.0 mg/kg/injection, schedule: Q01DX009 (ip), vehicle: saline with Tween-80
[6] = dose: 200.0 mg/kg/injection, schedule: Q01DX005 (ip), vehicle: saline with Tween-80
[7] = dose: 50.0 mg/kg/injection, schedule: Q01DX005 (ip), vehicle: saline with Tween-80
[8] = dose: 100.0 mg/kg/injection, schedule: Q01DX005 (ip), vehicle: saline with Tween-80
[9] = dose: 12.5 mg/kg/injection, schedule: Q01DX005 (ip), vehicle: Klucel (hydroxypropylcellulose) (HPC)
[10] = dose: 25.0 mg/kg/injection, schedule: Q01DX005 (ip), vehicle: Klucel (hydroxypropylcellulose) (HPC)
[11] = dose: 50.0 mg/kg/injection, schedule: Q01DX005 (ip), vehicle: Klucel (hydroxypropylcellulose) (HPC)
[12] = dose: 60.0 mg/kg/injection, schedule: Q01DX005 (ip), vehicle: saline with Tween-80
[13] = dose: 120.0 mg/kg/injection, schedule: Q01DX005 (ip), vehicle: saline with Tween-80
[14] = dose: 240.0 mg/kg/injection, schedule: Q01DX005 (ip), vehicle: saline with Tween-80

For `ClC1CCCC[N-]1.ClC1CCCC[N-]1.[Cl][Pt+2][Cl]` (stereo not given), the T/C [1] was 109 % of control, the T/C [2] was 103 % of control and the T/C [3] was 101 % of control. The T/C [4] was 97 % of control and the T/C [5] was 99 % of control.
For `O=C(NC1CCC(CC2CCC(NC(=O)C34CC5CC(CC(C5)C3)C4)CC2)CC1)C12CC3CC(CC(C3)C1)C2` (stereo not given), the T/C (dose: 0.4 mg/kg/injection, schedule: Q01DX005 (ip), vehicle: saline with Tween-80) was 97 % of control, the T/C (dose: 0.8 mg/kg/injection, schedule: Q01DX005 (ip), vehicle: saline with Tween-80) was 98 % of control and the T/C (dose: 1.56 mg/kg/injection, schedule: Q01DX005 (ip), vehicle: saline with Tween-80) was 91 % of control. For the same compound, the T/C (dose: 1.6 mg/kg/injection, schedule: Q01DX005 (ip), vehicle: saline with Tween-80) was 97 % of control, the T/C (dose: 3.2 mg/kg/injection, schedule: Q01DX005 (ip), vehicle: saline with Tween-80) was 87 % of control and the T/C (dose: 6.25 mg/kg/injection, schedule: Q01DX005 (ip), vehicle: saline with Tween-80) was 89 % of control. For the same compound, the T/C [6] was 86 % of control.
With `O=[N+]([O-])C1=CC(=N/Br)/C=CC/1=N/Br` the T/C [7] was 94 % of control, the T/C [8] was 100 % of control and the T/C [6] was 118 % of control.
For `O=C1CCS(=O)(=O)CC1`, the T/C [2] was 108 % of control, the T/C [3] was 103 % of control and 107 % of control and the T/C [4] was 114 % of control and 120 % of control. The T/C [5] was 107 % of control and 123 % of control, the T/C (dose: 400.0 mg/kg/injection, schedule: Q01DX009 (ip), vehicle: saline with Tween-80) was 113 % of control and 120 % of control and the T/C (dose: 600.0 mg/kg/injection, schedule: Q01DX009 (ip), vehicle: saline with Tween-80) was 123 % of control.
In the case of `CC1(C)CC(NC(=O)C(C)(C)Oc2ccc(Cl)cc2)CC(C)(C)N1`, the T/C [7] is reported as 107 % of control, the T/C [8] is reported as 100 % of control and the T/C [6] is reported as 98 % of control.
For `Cc1ncc(CNC(=O)NCCCl)c(N)n1`, the T/C (dose: 50.0 mg/kg/injection, schedule: Q01DX009 (ip), vehicle: Klucel (hydroxypropylcellulose) (HPC)) was 102 % of control, the T/C (dose: 100.0 mg/kg/injection, schedule: Q01DX009 (ip), vehicle: Klucel (hydroxypropylcellulose) (HPC)) was 103 % of control and the T/C (dose: 200.0 mg/kg/injection, schedule: Q01DX009 (ip), vehicle: Klucel (hydroxypropylcellulose) (HPC)) was 108 % of control.
`O=C(OC12CCCCC1C1(CCCCC1)N=N2)c1ccccc1` (stereo not given) was tested, and the T/C [1] was 105 % of control, the T/C [2] was 99 % of control and the T/C [3] was 111 % of control. The T/C [4] was 99 % of control and the T/C [5] was 97 % of control.
`CN(C)c1nc(=O)c(-c2ccccc2)c(-c2ccccc2)o1` was tested, and the T/C (dose: 100.0 mg/kg/injection, schedule: Q04DX002 (ip), vehicle: Klucel (hydroxypropylcellulose) (HPC)) was 103 % of control, the T/C (dose: 200.0 mg/kg/injection, schedule: Q04DX002 (ip), vehicle: Klucel (hydroxypropylcellulose) (HPC)) was 106 % of control and the T/C (dose: 400.0 mg/kg/injection, schedule: Q04DX002 (ip), vehicle: Klucel (hydroxypropylcellulose) (HPC)) was 103 % of control.
`c1ccc2c(Nc3ccc4c(c3)OCO4)c3c(nc2c1)CCCC3` was tested, and the T/C [9] was 102 % of control, the T/C [10] was 101 % of control and the T/C [11] was 100 % of control and 112 % of control.
With `Cc1cc(NC(=S)SC(C)C)ccc1Cl` the T/C (dose: 50.0 mg/kg/injection, schedule: Q01DX009 (ip), vehicle: saline) was 99 % of control, the T/C (dose: 100.0 mg/kg/injection, schedule: Q01DX009 (ip), vehicle: saline) was 102 % of control and the T/C (dose: 200.0 mg/kg/injection, schedule: Q01DX009 (ip), vehicle: saline) was 102 % of control.
`CC1(c2ccc(-c3ccccc3)cc2)NC(=O)NC1=O` (stereo not given) was tested, and the T/C [2] was 91 % of control, the T/C [3] was 86 % of control and the T/C [4] was 91 % of control.
For `O=C1c2c(O)ccc(O)c2C(=O)c2c(NCCCO)ccc(NCCCO)c21`, the T/C (dose: 0.62 mg/kg/injection, schedule: Q01DX009 (ip), vehicle: acid diluted with saline) was 110 % of control, the T/C (dose: 1.25 mg/kg/injection, schedule: Q01DX009 (ip), vehicle: acid diluted with saline) was 103 % of control and the T/C (dose: 2.5 mg/kg/injection, schedule: Q01DX009 (ip), vehicle: acid diluted with saline) was 100 % of control. For the same compound, the T/C (dose: 5.0 mg/kg/injection, schedule: Q01DX009 (ip), vehicle: acid diluted with saline) was 107 % of control, the T/C (dose: 10.0 mg/kg/injection, schedule: Q01DX009 (ip), vehicle: acid diluted with saline) was 98 % of control and the T/C (dose: 20.0 mg/kg/injection, schedule: Q01DX009 (ip), vehicle: acid diluted with saline) was 100 % of control. The T/C (dose: 40.0 mg/kg/injection, schedule: Q01DX009 (ip), vehicle: acid diluted with saline) was 100 % of control and the T/C (dose: 80.0 mg/kg/injection, schedule: Q01DX009 (ip), vehicle: acid diluted with saline) was 91 % of control.
`COC(=O)C12CCC(CC1C13CCCC(C)(C)C1C(=O)OC3)C(C)C2O` (stereo not given) was tested, and the T/C (dose: 100.0 mg/kg/injection, schedule: Q04DX002 (ip), vehicle: saline with Tween-80) was 96 % of control, the T/C (dose: 200.0 mg/kg/injection, schedule: Q04DX002 (ip), vehicle: saline with Tween-80) was 94 % of control and the T/C (dose: 400.0 mg/kg/injection, schedule: Q04DX002 (ip), vehicle: saline with Tween-80) was 94 % of control.
With `CCOC(=O)C1=C(C(=O)c2ccccc2)C(c2ccccc2[N+](=O)[O-])C(C(=O)c2ccccc2)=C(C(=O)OCC)N1` the T/C [12] was 101 % of control and the T/C [13] was 98 % of control.
With `CSC(/C=C/c1ccccc1)=Nc1ccccc1` the T/C (dose: 100.0 mg/kg/injection, schedule: Q01DX001 (ip), vehicle: saline with Tween-80) was 99 % of control, the T/C (dose: 200.0 mg/kg/injection, schedule: Q01DX001 (ip), vehicle: saline with Tween-80) was 99 % of control and the T/C (dose: 400.0 mg/kg/injection, schedule: Q01DX001 (ip), vehicle: saline with Tween-80) was 101 % of control.
With `O=c1cccc2c1c1cc[nH]c3ccc(=O)n2c31` the T/C (dose: 1.25 mg/kg/injection, schedule: Q01DX009 (ip), vehicle: saline with Tween-80) was 98 % of control, the T/C (dose: 2.5 mg/kg/injection, schedule: Q01DX009 (ip), vehicle: saline with Tween-80) was 107 % of control and the T/C (dose: 5.0 mg/kg/injection, schedule: Q01DX009 (ip), vehicle: saline with Tween-80) was 102 % of control.
`CC1CCCC(C)N1C(=O)OCC12COC3(C)CCC(C)(OC1)N23` (stereo not given) was tested, and the T/C (dose: 25.0 mg/kg/injection, schedule: Q01DX005 (ip), vehicle: saline) was 100 % of control, the T/C [11] was 95 % of control and the T/C (dose: 50.0 mg/kg/injection, schedule: Q01DX005 (ip), vehicle: saline) was 99 % of control and 100 % of control. For the same compound, the T/C (dose: 100.0 mg/kg/injection, schedule: Q01DX005 (ip), vehicle: Klucel (hydroxypropylcellulose) (HPC)) was 109 % of control, the T/C (dose: 100.0 mg/kg/injection, schedule: Q01DX005 (ip), vehicle: saline) was 104 % of control and 108 % of control and the T/C (dose: 200.0 mg/kg/injection, schedule: Q01DX005 (ip), vehicle: Klucel (hydroxypropylcellulose) (HPC)) was 109 % of control. For the same compound, the T/C (dose: 200.0 mg/kg/injection, schedule: Q01DX005 (ip), vehicle: saline) was 122 % of control and 96 % of control.
`CCOC(=O)C(=O)C1CC(c2ccccc2)=NNC1=O` (stereo not given) was tested, and the T/C [3] was 99 % of control, the T/C [4] was 103 % of control and the T/C [5] was 96 % of control.
With `CCOC(=O)C1(C)C(=O)C=C(c2ccccc2)CC1c1ccccc1` (stereo not given) the T/C [7] was 95 % of control, the T/C [8] was 100 % of control and the T/C [6] was 95 % of control.
`CCC[CH2][Sn]1([CH2]CCC)[O]OC(c2ccccc2)[O]1` (stereo not given) was tested, and the T/C (dose: 4.5 mg/kg/injection, schedule: Q01DX009 (ip), vehicle: other) was 150 % of control, the T/C (dose: 625.0 micrograms/kg/injection, schedule: Q04DX003 (ip), vehicle: saline with Tween-80) was 115 % of control and the T/C (dose: 1250.0 micrograms/kg/injection, schedule: Q04DX003 (ip), vehicle: saline with Tween-80) was 120 % of control. For the same compound, the T/C (dose: 5000.0 micrograms/kg/injection, schedule: Q04DX003 (ip), vehicle: saline with Tween-80) was 165 % of control.
For `CCNC(=O)c1c(C)nc(-c2ccccc2)nc1Nc1ccc(OCC)cc1`, the T/C [12] was 98 % of control, the T/C [13] was 98 % of control and the T/C [14] was 103 % of control.
In the case of `CSc1nnc(CCC(=O)Nc2cc(Cl)ccc2Cl)o1`, the T/C [12] is reported as 109 % of control, the T/C [13] is reported as 100 % of control and the T/C [14] is reported as 97 % of control.
For `COC(=O)C(C)CN1CCCC1` (stereo not given), the T/C (dose: 12.5 mg/kg/injection, schedule: Q04DX003 (ip), vehicle: saline) was 100 % of control, the T/C (dose: 25.0 mg/kg/injection, schedule: Q04DX003 (ip), vehicle: saline) was 100 % of control and the T/C (dose: 50.0 mg/kg/injection, schedule: Q04DX003 (ip), vehicle: saline) was 100 % of control.
For `CC1=NOC(=O)/C1=C/c1ccc(Cl)cc1`, the T/C [12] was 99 % of control, the T/C [13] was 105 % of control and the T/C [14] was 104 % of control.
`NS(=O)(=O)c1ccc(N=Nc2nc3[nH]c(=O)[nH]c(=O)c3[nH]2)cc1` was tested, and the T/C (dose: 6.25 mg/kg/injection, schedule: Q01DX005 (ip), vehicle: Klucel (hydroxypropylcellulose) (HPC)) was 106 % of control, the T/C [9] was 102 % of control and the T/C [10] was 107 % of control.
